In patent publication US20040192738A1, “2-(Butyl-1-sulfonylamino)-N-[1(R)-(6-methoxypyridin-3-yl)propyl] benzamide, its use as a medicament, and pharmaceutical preparations comprising it” (Aventis Pharma Deutschland GmbH, priority 2003, published 2004):
Values joined by “and” are separate entries in the source; they are usually repeats but may differ in a detail not shown here. Identical values can stand only once.

Key:
[1] = tested on: left atrium of the anesthetized pig; assay: Refractory period and left-atrial vulnerability in the anesthetized pig; format: in vivo; conditions: for % inhibition of the arrhythmias: arrhythmias induced by premature extra-stimulus (S2) in the left atrium, 3 mg/kg; for % inhibition of the arrhythmias / % increase in the refractory period: mean value; for % increase in the refractory period: left atrium, 10 minutes after injection, mean of three rates (150, 200 and 250/min); for antiarrhythmic action: model on the anesthetized pig
Method: Investigation of the Refractory Period and the Left-Atrial Vulnerability in the Pig
In the course of this, the refractory period of the left atrium was determined and the antiarrhythmic activity was recorded as described in the literature (Knobloch et al. 2002. Naunyn-Schmiedberg's Arch. Pharmacol. 366; 482-487). The anti-arrhythmic action relates here to the inhibition of the occurrence of episodes of arrhythmias which are induced by a prematurely placed extra-stimulus (S2) in the left atrium (=left-atrial vulnerability).
The refractory period values are stated in percent of the basal values 10 minutes after injection. Mean values for the refractory periods are shown from three rates (150, 200 and 250/min).
By repeated measurement after substance administration, the duration of action of a substance on the refractory period can be determined in this experimental procedure. The R enantiomer was infused intravenously over the course of 100 minutes in a dose of 1 mg/kg and the pharmacological action was determined over the course of 280 minutes.

[2] = Effect on QTc interval and inotropic or hemodynamic side effects; conditions: in vivo
[3] = anesthetized pig, bolus 3 mg/kg

Compound | % inhibition of the arrhythmias [1, 3] | % increase in the refractory period [1, 3] [%] | antiarrhythmic action ([1]; result in words) | duration of action on the left-atrial refractory period after ending the infusion ([1]; anesthetized pig, 1 mg/kg intravenous infusion over 100 minutes, observed over 280 minutes, FIG. 1) [min] | % inhibition of the arrhythmias ([1]; anesthetized pig, bolus 3 mg/kg, listed as R enantiomer) [%] | prolongation of the refractory period (comparison of enantiomers) ([1]; anesthetized pig, bolus 3 mg/kg, result in words) | melting point [°C] | effect on the QTc interval [2] | negative inotropic or hemodynamic side effects [2]
CCCCS(=O)(=O)Nc1ccccc1C(=O)N[C@@H](CC)c1ccc(OC)nc1 [S enantiomer, 2-(butyl-1-sulfonylamino)-N-[1(S)-(6-methoxypyridin-3-yl)propyl]benzamide] | 27% and 27.3% | 8.8 | more weakly active |  |  |  |  |  | 
CCCCS(=O)(=O)Nc1ccccc1C(=O)N[C@H](CC)c1ccc(OC)nc1 [formula I, 2-(butyl-1-sulfonylamino)-N-[1(R)-(6-methoxypyridin-3-yl)propyl]benzamide] |  | 19 | excellent | ≥ 180 | 73.9 | markedly greater prolongation of the refractory period than the S enantiomer | 97 | no effect | no negative inotropic or hemodynamic side effects
